Test [1] relates to chimeric replicon with genotype 4a NS5B. As to the kind of experiment: microbe, parasite or virus in culture. The following applies: Hepatitis C virus, read-out: 4a chimera 5% FBS EC50. The class given is cell-based, HCV genotype 4a.
In test [2] the target is T1, HCV NS5B polymerase 1b BK strain (Hepatitis C virus genotype 1b, UniProt P26663).
T1 construct: six-histidine tag; made in house; host or cells: E. coli
The test can be described thus: HCV NS5B polymerase enzymatic inhibition assay, strain 1b BK. The test is classed as biochemical. The conditions noted are these: enzyme, strain 1b BK; read-out: HCV Polymerase Strain 1b BK IC50. Put shortly: (§1)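 Incorporation of [3H]UTP (0.284 μM), alongside 20 μM each CTP and ATP, into RNA copied from a 5 nM 2.1 kb genotype 1b negative-strand template was measured after 3 h at 30° C using purified His-tagged NS5B truncated at residue 570. Product was spermine-precipitated, filtered and scintillation-counted; nonlinear regression gave IC50.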

For test [3], the target named is T2, HCV NS5B polymerase 1a-H77-C316Y (Hepatitis C virus genotype 1a, UniProt P27958, C2736Y).
T2 construct: six-histidine tag; made in house; host or cells: E. coli
As to the kind of experiment: biochemical. On the set-up: species or system HCV genotype 1a. Put shortly: as §1

The test system of test [4] is HCV NS5B polymerase 1a-H77-C316Y. The test can be described thus: biochemical. On the set-up: species or system HCV genotype 1a. The following applies: ratio of enzyme IC50s, 1a H77-C316Y / 1a H77. The essentials:
as §1

For test [5], the target named is T3, HCV NS5B polymerase 1a-H77 (Hepatitis C virus genotype 1a, UniProt P27958).
T3 construct: six-histidine tag; made in house; host or cells: E. coli
The test can be described thus: biochemical. More on the design: species or system HCV genotype 1a. The following applies: enzyme, strain 1a H77; read-out: HCV Polymerase Strain 1a H77 IC50. The essentials:
as §1

Test [6] relates to HCV 1b-BB7 subgenomic replicon. The test can be described thus: microbe, parasite or virus in culture. The test is classed as cell-based, HCV genotype 1b. The following applies: Hepatitis C virus, stable replicon. For orientation: A replicon is a self-replicating genome or part of one, used to study replication in cells.
The subject of test [7] is chimeric replicon with genotype 3a NS5B. The test can be described thus: microbe, parasite or virus in culture. The test is classed as cell-based, HCV genotype 3a. The following applies: Hepatitis C virus, read-out: 3a chimera 5% FBS EC50.
The test system of test [8] is HCV 1a-H77 subgenomic replicon. As to the kind of experiment: microbe, parasite or virus in culture. The following applies: Hepatitis C virus, stable replicon. The test is classed as cell-based, HCV genotype 1a.
The test system of test [9] is chimeric replicon with 2a-J6CF-derived NS5B. As to the kind of experiment: microbe, parasite or virus in culture. The conditions noted are these: Hepatitis C virus, read-out: 2a chimera 5% FBS EC50. The test is classed as cell-based, HCV genotype 2a.
In test [10] the test system is chimeric replicon with genotype 2b NS5B. As to the kind of experiment: microbe, parasite or virus in culture. The class given is cell-based, HCV genotype 2b. The following applies: Hepatitis C virus, read-out: 2b chimera 5% FBS EC50.
Setting [11] is: strain 1b BB7, 5% FBS + 40% human plasma, read-out: 1b BB7 5% FBS + 40% Human Plasma EC50.
Setting [12] is: strain 1b BB7, 5% FBS, no human plasma, read-out: 1b BB7 5% FBS EC50.
Where [13] appears, read: strain 1b BB7, 5% FBS, read-out: 1b BB7 5% FBS EC50.
[14] abbreviates: 5% FBS, absence of human plasma, read-out: Stable Replicon 1a H77 5% FBS EC50.
Where [15] appears, read: strain 1a H77, 5% FBS + 40% human plasma, read-out: 1a H77 5% FBS + 40% Human Plasma EC50.
The mark [16] stands for this setting: strain 1a H77, 5% FBS, no human plasma, read-out: 1a H77 5% FBS EC50.
[17] abbreviates: strain 1a H77, 5% FBS, read-out: 1a H77 5% FBS EC50.

Results on 8 compounds are retold here after US20160355530A1, “HEPATITIS C INHIBITORS AND USES THEREOF” (AbbVie Inc., priority 2010, published 2016).

Read-outs that look alike come from different tables or passages of the source.

Broadly, the EC50 is the midpoint of the concentration-response curve. The term IC50 denotes the concentration that gives 50% inhibition.

T1 sequence (P26663 2420-2989): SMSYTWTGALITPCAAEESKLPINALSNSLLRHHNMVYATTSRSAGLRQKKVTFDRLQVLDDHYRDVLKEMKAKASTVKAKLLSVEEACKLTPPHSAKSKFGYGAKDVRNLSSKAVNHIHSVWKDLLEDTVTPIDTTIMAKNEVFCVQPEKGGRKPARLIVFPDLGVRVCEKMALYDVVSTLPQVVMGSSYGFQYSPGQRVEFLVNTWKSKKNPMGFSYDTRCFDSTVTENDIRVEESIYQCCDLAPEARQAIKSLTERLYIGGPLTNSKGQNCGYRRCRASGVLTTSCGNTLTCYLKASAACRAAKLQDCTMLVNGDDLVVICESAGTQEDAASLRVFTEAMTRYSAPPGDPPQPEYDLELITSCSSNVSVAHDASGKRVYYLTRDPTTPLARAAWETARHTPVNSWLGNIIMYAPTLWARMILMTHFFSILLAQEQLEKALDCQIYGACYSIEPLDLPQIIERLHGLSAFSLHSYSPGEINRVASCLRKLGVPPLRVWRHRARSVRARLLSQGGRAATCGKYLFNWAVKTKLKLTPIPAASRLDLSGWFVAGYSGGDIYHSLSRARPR
T3 sequence (P27958 2421-2990): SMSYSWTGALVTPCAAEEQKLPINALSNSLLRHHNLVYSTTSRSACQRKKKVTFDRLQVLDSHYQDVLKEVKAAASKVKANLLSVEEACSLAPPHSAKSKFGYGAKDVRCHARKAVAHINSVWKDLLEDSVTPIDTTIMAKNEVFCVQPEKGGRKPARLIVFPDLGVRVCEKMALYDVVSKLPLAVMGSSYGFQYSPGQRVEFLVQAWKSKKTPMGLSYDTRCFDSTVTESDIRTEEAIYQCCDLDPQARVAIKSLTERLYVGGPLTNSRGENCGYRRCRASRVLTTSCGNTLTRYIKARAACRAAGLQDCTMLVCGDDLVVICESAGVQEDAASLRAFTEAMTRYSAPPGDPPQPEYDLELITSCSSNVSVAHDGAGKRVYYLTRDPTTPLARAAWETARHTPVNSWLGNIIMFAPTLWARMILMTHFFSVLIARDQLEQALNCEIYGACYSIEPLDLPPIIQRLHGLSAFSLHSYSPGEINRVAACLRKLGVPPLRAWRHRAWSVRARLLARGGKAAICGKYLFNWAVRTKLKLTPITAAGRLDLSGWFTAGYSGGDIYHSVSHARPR
T2 sequence (P27958 2421-2990 C2736Y): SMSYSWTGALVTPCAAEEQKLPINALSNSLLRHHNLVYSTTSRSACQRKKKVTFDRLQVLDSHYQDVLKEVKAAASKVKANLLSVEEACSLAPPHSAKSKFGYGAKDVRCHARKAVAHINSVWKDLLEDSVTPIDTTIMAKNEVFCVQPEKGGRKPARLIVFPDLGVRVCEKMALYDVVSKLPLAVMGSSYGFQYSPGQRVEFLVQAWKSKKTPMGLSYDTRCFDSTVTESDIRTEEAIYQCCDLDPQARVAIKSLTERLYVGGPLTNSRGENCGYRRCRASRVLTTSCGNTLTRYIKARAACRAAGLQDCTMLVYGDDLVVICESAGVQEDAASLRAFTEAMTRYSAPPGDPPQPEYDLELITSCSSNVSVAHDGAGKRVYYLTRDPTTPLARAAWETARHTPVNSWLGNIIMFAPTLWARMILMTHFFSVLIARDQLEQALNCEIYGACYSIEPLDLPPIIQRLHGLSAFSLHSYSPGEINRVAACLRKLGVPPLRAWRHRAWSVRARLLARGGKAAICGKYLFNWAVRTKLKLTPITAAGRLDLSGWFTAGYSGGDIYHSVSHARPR

`[2H]C1([2H])NC(c2c(-c3ccc(F)cc3)oc3cc(N(CCCCS(C)(=O)=O)S(C)(=O)=O)c(C4CC4)cc23)=NO1` [Example 150, N-{5-cyclopropyl-3-[(5,5-^2H2)-4,5-dihydro-1,2,4-oxadiazol-3-yl]-2-(4-fluorophenyl)-1-benzofuran-6-yl}-N-[4-(methylsulfonyl)butyl]methanesulfonamide]: the EC50 was found to be 25 nM in [1]; 231 nM in [6] (setting [11]); 4 nM in test [6] (setting [12]); 4 nM in test [6] (setting [13]); 7 nM in [7]; 5 nM in test [8] (setting [14]). The concentration giving a half-maximal response (EC50) in [8] (setting [15]) amounted to 320 nM; in [8] (setting [16]), 5 nM; in test [8] (setting [17]) it was 5 nM; in test [9], 43 nM; in test [10] it was 30.9 nM. Also, the results for the IC50 in test [2], in [3] and in test [5] were 5 nM, 42 nM and 4 nM, respectively. Also, the “C316Y/1a Fold Resistance” value in test [4] turned out to be 11 fold.
Regarding `CS(=O)(=O)N(CC1CC1(F)F)c1cc2oc(-c3ccc(F)cc3)c(-c3ncc[nH]3)c2cc1C1CC1` (stereo not drawn) [Example 55, N-[5-cyclopropyl-2-(4-fluorophenyl)-3-(1H-imidazol-2-yl)-1-benzofuran-6-yl]-N-[(2,2-difluorocyclopropyl)methyl]methanesulfonamide], the EC50 is 557 nM in [1]; 363 nM in test [6] (setting [11]); 37 nM in [6] (setting [12]); 37 nM in [6] (setting [13]); 18 nM in [7]; 68 nM in [8] (setting [14]). Moreover, the 50% effective concentration (EC50) in test [8] (setting [15]) worked out at 1020 nM; in test [8] (setting [16]), 68 nM; in test [8] (setting [17]) it was 68 nM; in test [9], 184 nM; in [10], 348 nM. The 50% inhibitory concentration (IC50) in test [2] turned out to be 28 nM; in test [3] it was 366 nM; in test [5], 5 nM. In addition, the “C316Y/1a Fold Resistance” value in test [4] is reported as 73 fold.
Turning to `CS(=O)(=O)N(Cc1cnc(-c2cccc(CO)c2)s1)c1ccc2c(-c3ncc[nH]3)c(-c3ccccc3)oc2c1` [Example 28, N-({2-[3-(hydroxymethyl)phenyl]-1,3-thiazol-5-yl}methyl)-N-[3-(1H-imidazol-2-yl)-2-phenyl-1-benzofuran-6-yl]methanesulfonamide], the concentration giving a half-maximal response (EC50) in [1] came out at 378 nM; in test [6] (setting [11]) it was 10000 nM; in test [6] (setting [12]) it was 24.1 nM; in test [6] (setting [13]) it was 24.1 nM; in test [7] it was 14.3 nM; in test [8] (setting [14]), 405 nM. Moreover, the EC50 in [8] (setting [15]) came out at 10000 nM; in test [8] (setting [16]), 405 nM; in test [8] (setting [17]) it was 405 nM; in [9] it was 234 nM; in test [10], 561 nM. The IC50 in [2] stood at 12 nM; in [3], 28 nM; in [5] it was 5.9 nM. Besides, the “C316Y/1a Fold Resistance” value in test [4] was determined as 5 fold.
`CCN(c1cc2oc(-c3ccc(F)cc3)c(-c3ncc[nH]3)c2cc1C1CC1)S(C)(=O)=O` [Example 56, N-[5-cyclopropyl-2-(4-fluorophenyl)-3-(1H-imidazol-2-yl)-1-benzofuran-6-yl]-N-ethylmethanesulfonamide]: the half-maximal effective concentration (EC50) stood at 81.9 nM in test [1]; 62 nM in test [6] (setting [11]); 12.1 nM in test [6] (setting [12]); 12.1 nM in test [6] (setting [13]); 9.6 nM in test [7]; 27.8 nM in test [8] (setting [14]). The 50% effective concentration (EC50) in [8] (setting [15]) stood at 192 nM; in test [8] (setting [16]), 27.8 nM; in [8] (setting [17]), 27.8 nM; in test [9] it was 49.3 nM; in [10], 42.6 nM. The half-inhibitory concentration (IC50) in test [2] is 17 nM; in test [3], 220 nM; in test [5], 3.5 nM. Further, the “C316Y/1a Fold Resistance” value in test [4] was 64 fold.
With `CS(=O)(=O)NCCCN(c1cc2oc(-c3ccc(F)cc3)c(-c3ncc[nH]3)c2cc1C1CC1)S(C)(=O)=O` [Example 95, N-[5-cyclopropyl-2-(4-fluorophenyl)-3-(1H-imidazol-2-yl)-1-benzofuran-6-yl]-N-{3-[(methylsulfonyl)amino]propyl}methanesulfonamide], the 50% effective concentration (EC50) amounted to 46.1 nM in test [1]; 76.1 nM in test [6] (setting [11]); 4.8 nM in [6] (setting [12]); 4.8 nM in test [6] (setting [13]); 5.7 nM in test [7]; 11.2 nM in test [8] (setting [14]). Further, the 50% effective concentration (EC50) in test [8] (setting [15]) turned out to be 121 nM; in [8] (setting [16]) it was 11.2 nM; in test [8] (setting [17]) it was 11.2 nM; in test [9], 33.1 nM; in [10], 80.8 nM. The values for the half-inhibitory concentration (IC50) in [2], in test [3] and in test [5] were 13 nM, 85 nM and 4.5 nM, respectively. For the same compound, the “C316Y/1a Fold Resistance” value in test [4] amounted to 19 fold.
In the case of `CN(C)CCCN(c1cc2oc(-c3ccc(F)cc3)c(C3=NOCCN3)c2cc1C1CC1)S(C)(=O)=O` [Example 127, N-[5-cyclopropyl-3-(5,6-dihydro-4H-1,2,4-oxadiazin-3-yl)-2-(4-fluorophenyl)-1-benzofuran-6-yl]-N-[3-(dimethylamino)propyl]methanesulfonamide], the concentration giving a half-maximal response (EC50) in [1] was determined as 814 nM; in test [6] (setting [11]), 90 nM; in test [6] (setting [12]), 21 nM; in [6] (setting [13]), 21 nM; in test [7], 57 nM; in test [8] (setting [14]), 64.8 nM. Moreover, the EC50 in [8] (setting [15]) turned out to be 123 nM; in [8] (setting [16]), 64.8 nM; in test [8] (setting [17]), 64.8 nM; in test [9], 344 nM; in test [10] it was 309 nM. Moreover, the IC50 in test [2] was determined as 302 nM; in test [3], 663 nM; in test [5] it was 25.4 nM. In addition, the “C316Y/1a Fold Resistance” value in [4] turned out to be 26 fold.
Take `CS(=O)(=O)N(CCCc1nnn[nH]1)c1cc2oc(-c3ccc(F)cc3)c(C3=NOCCN3)c2cc1C1CC1` [Example 180, N-[5-cyclopropyl-3-(5,6-dihydro-4H-1,2,4-oxadiazin-3-yl)-2-(4-fluorophenyl)-1-benzofuran-6-yl]-N-[3-(1H-tetrazol-5-yl)propyl]methanesulfonamide]: the half-maximal effective concentration (EC50) in test [1] is greater than 1000 nM; in test [6] (setting [11]), 10000 nM; in test [6] (setting [12]), 1000 nM; in [6] (setting [13]), 1000 nM; in [7], 1000 nM; in test [8] (setting [14]), 1000 nM. Besides, the EC50 in [8] (setting [15]) was determined as 10000 nM; in test [8] (setting [16]), 1000 nM; in test [8] (setting [17]) it was 1000 nM; in test [9] it was 1000 nM; in test [10], 1000 nM. For the same compound, the results for the IC50 in test [2], in test [3] and in test [5] were 32 nM, 34 nM and 6 nM, respectively. Also, the “C316Y/1a Fold Resistance” value in [4] was found to be 6 fold.
As for `CC[S+]([O-])CCN(c1cc2oc(-c3ccc(F)cc3)c(C3=NOCCN3)c2cc1C1CC1)S(C)(=O)=O` (stereo not drawn) [Example 141, N-[5-cyclopropyl-3-(5,6-dihydro-4H-1,2,4-oxadiazin-3-yl)-2-(4-fluorophenyl)-1-benzofuran-6-yl]-N-[2-(ethylsulfinyl)ethyl]methanesulfonamide], the concentration giving a half-maximal response (EC50) in test [1] stood at 621 nM; in [6] (setting [11]), 296 nM; in [6] (setting [12]), 31 nM; in [6] (setting [13]), 31 nM; in test [7], 53 nM; in [8] (setting [14]), 38.5 nM. The concentration giving a half-maximal response (EC50) in [8] (setting [15]) was 275 nM; in [8] (setting [16]) it was 38.5 nM; in [8] (setting [17]), 38.5 nM; in test [9], 623 nM; in [10], 1000 nM. The concentration for half-maximal inhibition (IC50) in test [2] is 167 nM; in test [3], 209 nM; in [5] it was 15 nM. Moreover, in test [4], the “C316Y/1a Fold Resistance” value amounted to 14 fold.
